Measurements published in publication PMC12234328, “A naphthalimide derivative exerts potent antiplatelet and antithrombotic activities without a bleeding tendency” (Frontiers in Pharmacology, 2025).
Where two headings read alike, the source gives them in different places.

Tests used:
[1] = tested on: tail bleeding (hemostasis); design: method as in Shih et al., 2021; details: ref Shih et al., 2021; cited from earlier work
recombinant human GPVI = target: T1, recombinant human GPVI (Homo sapiens, UniProt Q9HCN6); experiment: Surface plasmon resonance binding assay (OpenSPR); details: his-tagged recombinant GPVI on NTA chip, compound at 0.1 and 1 μM; read-out: KD (equilibrium dissociation constant)
T1 sequence (Q9HCN6 21-267 limits assumed): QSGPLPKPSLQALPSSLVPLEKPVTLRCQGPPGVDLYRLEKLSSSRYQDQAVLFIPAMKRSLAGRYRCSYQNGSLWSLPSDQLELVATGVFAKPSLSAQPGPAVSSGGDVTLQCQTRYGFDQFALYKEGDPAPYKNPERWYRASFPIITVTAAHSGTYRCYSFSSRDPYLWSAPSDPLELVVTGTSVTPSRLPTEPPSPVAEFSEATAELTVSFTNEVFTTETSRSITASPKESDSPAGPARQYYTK
Description: Surface plasmon resonance (SPR) analysis was performed using an OpenSPR instrument (Nicoya, Kitchener, Canada). A nitrilotriacetic acid (NTA) sensor chip was installed in the OpenSPR instrument. Running buffer (phosphate-buffered saline) was pumped at the maximum flow rate, and 80% isopropanol was injected to remove any bubbles. Subsequently, 200 μL of a 200 mM imidazole solution was injected to prime the sensor surface. After rinsing the chip with running buffer, 200 μL of a 40 mM NiCl2 solution was used to activate the NTA chip. After 5 min of interaction time, his-tagged recombinant GPVI proteins were bound to the NTA chip by perfusing the GPVI protein solution at a flow rate of 20 μL/min. Solutions of compound 5 or compound 6 (0.1 and 1 μM) were then injected. The equilibrium dissociation constant (KD) was determined using the OpenSPR system (Nicoya).
An SPR binding assay was performed. First, recombinant human GPVI was coated on the NTA sensor chip. Solutions of compound 5 and compound 6 (0.1 and 1 μM) were then perfused on the chip, and the KD was determined using the OpenSPR system (Nicoya Lifesciences).
FIGURE 7 Direct binding of compound 6 on GPVI. […] Equilibrium dissociation constant (KD) were determined using the OpenSPR system. […]

[2] = tested on: thrombus formation in mesenteric venules; design: method as in Shih et al., 2021; details: mice, ref Shih et al., 2021, cited from earlier work
[3] = tested on: human platelet suspensions stimulated with U46619; design: method as in Shih et al., 2021; details: high concentrations; ref Shih et al., 2021; cited from earlier work
[4] = tested on: human platelet suspensions stimulated with collagen; design: method as in Shih et al., 2021; details: human platelets; ref Shih et al., 2021; read-out: IC50, collagen-induced platelet aggregation; cited from earlier work
[5] = tested on: human platelet suspensions stimulated with thrombin; design: method as in Shih et al., 2021; details: high concentrations; ref Shih et al., 2021; cited from earlier work
[6] = tested on: thrombus formation in mesenteric venules; experiment: Fluorescein sodium-mediated thrombus formation in mesenteric microvessels of mice; assay type: in vivo; details: 20 mg/kg i.v., positive control, n = 6, mean ± SEM
Description: Male ICR mice (weighing 20–25 g and aged 5–6 weeks) were purchased from BioLasco (Taipei, Taiwan). The animal use protocol for this project was approved by the Affidavit of Approval of Animal Use Protocol–Taipei Medical University (LAC-2020–0074). All animal experiments were conducted in accordance with the Guide for the Care and Use of Laboratory Animals, Eighth Edition (2011).
The mice were anesthetized with an oxygen–air mixture containing 3% isoflurane at a gas flow rate of 1.5–2 L/min. A bolus dose (bolus volume: 20 μL) of compound 6 (0.3 mg/kg, 0.6 mg/kg, or 1.2 mg/kg), DMSO (solvent control; 1.1 g/kg), or aspirin (20 mg/kg; positive control) was intravenously administered through the tail vein before the administering sodium fluorescein (15 mg/kg). The small intestinal segments were placed on a transparent culture dish, and the mesenteric vessels were observed under a microscope. Venules (20–30 μm) were selected and irradiated with light (wavelength <520 nm) to induce endothelial damage, causing thrombus formation and subsequent vessel occlusion. The time required to occlude a microvessel was recorded ([Lin et al., 2013]). A formula for dose translation based on the […] was used to calculate the appropriate dose for use in the mice ([Reagan-Shaw et al., 2008]). [Reagan-Shaw et al. (2008)] reported that the animal dose should not be extrapolated to a human equivalent dose (HED) by a simple conversion based on body weight. […] The formula for dose translation based on BSA is as follows: HED (mg/kg) = Animal dose (mg/kg) multiply by Animal Km/Human Km. Mouse Km is 3 and Human Km is 37.
FIGURE 3 Effects of compound 6 on thrombosis and hemostasis in mice. Mice were treated with compound 6 (0.3, 0.6, or 1.2 mg/kg), DMSO (solvent control), or aspirin (20 mg/kg; positive control) via intravenous route for 10 min. (A) The microthrombus formation (arrows) in mesenteric venules. Scale bar = 30 μm. […] Each point on the plot indicates a mouse (n = 6). Data (A,B) are presented as means ± SEM (n = 6). *p < 0.05 and ***p < 0.001 compared with the DMSO group.

Structure (SMILES) | Bleeding tendency [1] | Kd (recombinant human GPVI) [µM] | Thrombus formation ([2]; 1.2 mg/kg) | Thrombus formation ([2]; 2.3 mg/kg) | Effect on U46619-induced platelet aggregation [3] | IC50 [4] [µM] | Effect on thrombin-induced platelet aggregation [5] | Occlusion time [6] [s]
CN(C)CCN1C(=O)c2cccc3c(NCCNC(=O)c4ccccn4)ccc(c23)C1=O [compound 5] | demonstrated a bleeding tendency | 0.3 | not | inhibits thrombus formation | can block | 6.5 | can block | 
CC(=O)Oc1ccccc1C(=O)O [aspirin, reference compound] |  |  |  |  |  |  |  | 492.2 ± 31.9
